Data taken from PMC9618858, “β-Carboline dimers inhibit the tumor proliferation by the cell cycle arrest of sarcoma through intercalating to Cyclin-A2” (Frontiers in Immunology, 2022).

Target: T1, Cyclin-A2 (CCNA2) (Homo sapiens, UniProt P20248)
T1 construct: recombinant human CCNA2 (rCCNA2), GST-tagged expression in BL21 (DE3), tag cleaved
Experiment: ITC with purified CCNA2; supported by CETSA in MG-63 lysate and co-IP (blocks CCNA2-CDK2)
Type: binding

T1 sequence (P20248 whole entry): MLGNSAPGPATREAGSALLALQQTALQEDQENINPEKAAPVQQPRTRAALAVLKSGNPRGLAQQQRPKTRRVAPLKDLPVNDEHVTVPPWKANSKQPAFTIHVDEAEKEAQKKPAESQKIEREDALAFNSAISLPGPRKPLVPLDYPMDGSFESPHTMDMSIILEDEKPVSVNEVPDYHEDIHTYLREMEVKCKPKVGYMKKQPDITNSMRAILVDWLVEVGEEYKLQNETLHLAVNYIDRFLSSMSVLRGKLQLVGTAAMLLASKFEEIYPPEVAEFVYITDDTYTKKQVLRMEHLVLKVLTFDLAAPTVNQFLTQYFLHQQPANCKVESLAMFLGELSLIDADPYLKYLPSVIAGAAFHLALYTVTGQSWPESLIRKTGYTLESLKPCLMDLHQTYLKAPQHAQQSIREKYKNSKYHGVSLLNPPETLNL

- Kd: 2900 µM
SMILES: Cc1ccccc1Cn1c2ccccc2c2cc(C(=O)OCCCCCOC(=O)c3cc4c5ccccc5n(Cc5ccccc5C)c4cn3)ncc21 [Comp1]
